According to paper PMC9611887, “Chitosan as a Functional Carrier for the Local Delivery Anti-Inflammatory Systems Containing Scutellariae baicalensis radix Extract” (Pharmaceutics, 2022):

Biological target: T1, hyaluronidase
T1 construct: gene SPAM1
Assay: turbidimetric assay, CTAB precipitation of undigested hyaluronic acid, absorbance […] nm
Format: biochemical
Settings: hyaluronic acid 0.3 mg/mL, acetate buffer pH 4.5, bovine albumin and NaCl present, 37 °C, 10 min preincubation, 45 min reaction

Ability to Inhibit the Enzyme Hyaluronidase IC50: 1210 ± 60 µg/mL
Compound: O=C(O)[C@H]1O[C@@H](Oc2cc3oc(-c4ccccc4)cc(=O)c3c(O)c2O)[C@H](O)[C@@H](O)[C@@H]1O [Baicalin]
